{
  "source": "ChEMBL document CHEMBL2417502",
  "about": "“Polyketides from the littoral plant associated fungus Pseudallescheria boydii” (2013)",
  "data": [
    {"tested_on": "A549", "assay": "Cytotoxicity against human A549 cells after 72 hrs by SRB assay", "type": "functional", "conditions": "A549, 72 h", "units": {"GI50": "µM"}, "values": [
      {"smiles": "CC[C@H](C)C1=C(OC)[C@H](O)[C@](C)(CC)C1=O", "GI50": 41.3},
      {"smiles": "O=c1[nH]cc(F)c(=O)[nH]1", "note": "[FLUOROURACIL]", "GI50": 3.6},
      {"smiles": "CO[C@@H]1C(=O)CC[C@]2(CO2)[C@@]1(O)[C@@]1(C)O[C@@H]1CC=C(C)C", "note": "[OVALICIN]", "GI50": 4.1}
    ]}
  ]
}
